From US20250101062A1, “ANTIMICROBIAL PEPTIDES” (Board of Regents of the University of Nebraska, priority 2023, published 2025)
Where two headings read alike, the source gives them in different places. Where no end group is shown, it is not given here.

Columns and labels:
[1] = test system: S. aureus USA300 biofilms in murine wounds; experiment: In vivo biofilm assay, murine wound model; design: species or system BALB/c mice; conditions: topical, 24 h
Protocol: Preparation of Inoculum. An overnight culture of S. aureus USA300 LAC was inoculated in fresh MHB and incubated at 37° C. for 3 hours. The suspension was centrifuged at 3000 g for 5 minutes, and the supernatant was discarded. The bacteria were resuspended in 1×PBS, and the OD600 was adjusted to 0.6 (˜3×10^7 CFU/mL).
Experimental Animals. An alternative murine wound model has been established which is slightly different from other studies (Su, et al. (2019) Mol. Pharmaceutics 16:2011-2020; Su, et al. (2023) J. Controlled Release 356:131-141). Female BALB/c mice (3-4 weeks, ˜20 g) were fed with standardized food (Teklad Laboratory diet for rodents) and water (Hydropac Alternative Watering System) ad libitum. Mice were kept in ventilated cages (IVCs) at a temperature of 20-24° C., a humidity of 50-60%, 60 air exchanges per hour, and a 12/12 hour light/dark cycle. All materials, including IVCs, lids, feeders, bottles, bedding, and water, were autoclaved before use. All animal manipulations were performed in a class II laminar flow biological safety cabinet. The study was approved by the Institutional Animal Care and Use Committee (IACUC) of UNMC (Protocol no. 22-015-08-FC).
In Vivo Biofilm Assay. Mice were anesthetized by intraperitoneal injection of ketamine-xylazine (100 mg/kg+10 mg/kg). […] Finally, the plates were incubated at 37° C. for 20 hours and the CFUs were counted. […]

P. aeruginosa E411-17 = experiment: microbe, parasite or virus in culture; format: cell-based, Pseudomonas aeruginosa; conditions: for MIC: read-out: Antimicrobial activity (MIC)
Method in brief: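 Broth microdilution with twofold peptide dilutions, using exponential-phase bacteria at about 10^5 CFU/mL in MHB, incubated overnight at 37 °C and read at OD600. MIC, reported as a range, is the peptide concentration with no growth. Some tests used diluted MHB/TSB/LB, adjusted pH, or added NaCl or human serum.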

Row | Molecule | bacterial CFU decrease ([1]; 4.4 mg/kg per wound) [log] | Activity (MIC) P. aeruginosa (P. aeruginosa E411-17; E411-17) [µM] | reduction of bacterial burden ([1]; 10 mg/kg per wound) [logs] | MIC (P. aeruginosa E411-17; Human serum 5%) [µM] | MIC (P. aeruginosa E411-17; Human serum 10%) [µM] | MIC (P. aeruginosa E411-17; Pseudomonas aeruginosa, E41117, pH 6.21) [µM] | MIC (P. aeruginosa E411-17; Pseudomonas aeruginosa, E41117, pH 7.22) [µM] | MIC (P. aeruginosa E411-17; Pseudomonas aeruginosa, E41117, pH 8.13) [µM] | MIC (P. aeruginosa E411-17; Pseudomonas aeruginosa, E41117, NaCl (150 mM)) [µM]
1 | RRWWRWWR-NH2 [W543] | 2 | 8 |  |  |  |  |  |  | 
2 | CCCCCCCCCC(=O)N[C@@H](Cc1c[nH]c2ccccc12)C(=O)N[C@H](CC(N)=O)C(=O)N[C@@H](CC(=O)O)C(=O)N[C@@H]1C(=O)NCC(=O)N[C@@H](CCCN)C(=O)N[C@@H](CC(=O)O)C(=O)N[C@H](C)C(=O)N[C@@H](CC(=O)O)C(=O)NCC(=O)N[C@H](CO)C(=O)N[C@@H]([C@H](C)CC(=O)O)C(=O)N[C@@H](CC(=O)c2ccccc2N)C(=O)O[C@@H]1C [Daptomycin] |  |  | ~3 | >8 | >8 | > 8 | > 8 | > 8 | > 8
